Earlier results in publication PMC7533793 (Cancer, 2009).
Like-named read-outs stand apart in the source and are kept apart here.

System: in-transit extremity melanoma
Details: for CR rate, isolated limb infusion: Sydney Melanoma Unit study
[1] = previously published experience of the authors, without ADH-1

## N[C@@H](Cc1ccc(N(CCCl)CCCl)cc1)C(=O)O [melphalan, L-phenylalanine mustard]
N = 60, M. D. Anderson stage IIIab (AJCC stage IIIC)
  CR rate, isolated limb infusion: 33%
N = 74, M. D. Anderson stage IIIa (AJCC stage IIIB)
  CR rate, isolated limb infusion: 43%
[1]
  CR rate, isolated limb infusion with LPAM: 30%
  PD rate, isolated limb infusion with LPAM: 48%
  PR rate, isolated limb infusion with LPAM: 7%
